The values that follow come from US9056152B2, “Medical device with crystalline drug coating” (Boston Scientific Scimed, Inc., priority 2011, dated 2015).

A short description of data set [1]: Porcine animal study of everolimus coated stents: drug in artery tissue (LC/MS) and drug remaining on stent (HPLC). Format: in vivo, common swine. Conditions: explanted at 28 days; for Tissue content at 28 days: 130 μg on 12 mm stents implanted in coronary and internal thoracic arteries of swine, drug in arteries by LC/MS; for % drug left on stent at 28 days: 130 μg on 12 mm stents implanted in swine arteries, drug remaining on stent by HPLC. As to the method: Stents coated with either crystalline or amorphous everolimus (130 μg on 12 mm stents) were implanted in the coronary arteries and internal thoracic arteries of common swine. The stented vessels were explanted after 3 hrs, 24 hrs, 7, 14 and 28 days. N=3 stents per timepoint were used. After sacrifice the stents were removed from the arteries and the amount of drug in the arteries was determined by LC/MS. The amount of drug remaining on the stent was determined by HPLC.

The nature of data set [2]: Everolimus solubility in water @ 37° C., amorphous vs crystalline form. Format: physicochemical. Conditions: data shown in FIG. 1. As to the method:
FIG. 1 is a graph comparing everolimus solubility data in water @ 37° C. for amorphous and crystalline forms.

Setting [3] is: listed as crystalline everolimus.

For `CO[C@H]1C[C@@H]2CC[C@@H](C)[C@@](O)(O2)C(=O)C(=O)N2CCCC[C@H]2C(=O)O[C@H]([C@H](C)C[C@@H]2CC[C@@H](OCCO)[C@H](OC)C2)CC(=O)[C@H](C)/C=C(\C)[C@@H](O)[C@@H](OC)C(=O)[C@H](C)C[C@H](C)/C=C/C=C/C=C/1C` [Amorphous Everolimus, 40-O-(2-Hydroxyethyl)rapamycin], the entries for the “Tissue content at 28 days” value in data set [1] and in data set [1] (listed as amorphous everolimus) were 0.04 ng/mg and “essentially no drug in the tissue”, respectively. Moreover, the “% drug left on stent at 28 days” value in data set [1] was 0%; in data set [1] (listed as amorphous drug) it was “no drug remaining on the stents”.
Take `CO[C@H]1C[C@@H]2CC[C@@H](C)[C@@](O)(O2)C(=O)C(=O)N2CCCC[C@H]2C(=O)O[C@H]([C@H](C)C[C@@H]2CC[C@@H](OCCO)[C@H](OC)C2)CC(=O)[C@H](C)/C=C(\C)[C@@H](O)[C@@H](OC)C(=O)[C@H](C)C[C@H](C)/C=C/C=C/C=C/1C` [Crystalline Everolimus, 40-O-(2-Hydroxyethyl)rapamycin]: the solubility in water entry in data set [2] is listed as “much lower solubility in water than amorphous everolimus”. In data set [1], the “Tissue content at 28 days” value is 6.1 ng/mg and the “% drug left on stent at 28 days” value worked out at 25.8%. For the same molecule, in data set [1] (setting [3]), the “Tissue content at 28 days” value came out at 6 ng/mg and the “% drug left on stent at 28 days” value is 25%.
